Values of other authors, collected in patent US20050208119A1, “Encapsulated oral chelating preparations” (priority 2004, published 2005).

Conditions: oral administration

fraction absorbed when administered by mouth (general consensus): about five
unabsorbed fraction that remains within the digestive tract (reported): 95%
SMILES: O=C(O)CN(CCN(CC(=O)O)CC(=O)O)CC(=O)O [EDTA, ethylene-diaminetetraacetic acid]
